Test results reported in patent US12128019B1, “Nanocomposite including abscisic acid-loaded collagen nanoparticles” (KING FAISAL UNIVERSITY, priority 2023, dated 2024).
Marks after values point to notes of the source that are not given here.

Experiments:
[1] = system: cardiac enzymes; troponin, LDH, and CK; experiment: Biological cardiac markers in serum, MI rats; assay type: in vivo; details: for Cardiac enzyme levels: serum troponin, LDH, CK
Protocol: (§1) Four groups of rats were injected with adrenaline (2 mg/kg, s.c.) as a single dose for 2 consecutive days (24 h apart) to induce myocardial infarction (MI) while an additional rat group was used as control. Treatment of the rat groups is set forth below.
(§2) Group 1: (Control negative group): rats were injected intraperitoneally (i.p.) with physiological saline 0.2 ml/day for one week.
(§3) Group 2 (MI group): rats were injected with adrenaline (2 mg/kg, s.c.) as a single dose for 2 consecutive days (24 h apart) to induce MI.
(§4) Group 3 (MI+ABA carrying on collagen nanoparticle): rats were injected with adrenaline (2 mg/kg, s.c.) as a single dose for 2 consecutive days (24 h apart) to induce MI and ABA-loaded collagen nanoparticle were administered with adrenaline by oral gavage for one week 1 mg/kg/day of.
(§5) Group 4 (MI+Trimetazidine): rats were injected with adrenaline (2 mg/kg, s.c.) as a single dose for 2 consecutive days (24 h apart) to induce MI and Trimetazidine (Sigma, USA) was administered intraperitoneally with adrenaline at 10 mg/kg/day for one week. Trimetazidine was injected intraperitoneally in the low-dose group (10 mg/kg).
(§6) Group 5 (MI+Collagen nanoparticle) group: rats were injected with adrenaline (2 mg/kg, s.c.) as a single dose for 2 consecutive days (24 h apart) to induce MI Collagen nanoparticle was administered along with adrenaline by oral gavage for one week at 1 mg/kg/day.
(§7) Group 6 (MI+ABA carrying on collagen nanoparticle+Trimetazidine) group: rats were injected with adrenaline (2 mg/kg, s.c.) as a single dose for 2 consecutive days (24 h apart) to induce MI, and ABA-loaded collagen nanoparticle were administered (1 mg/kg/day) by oral gavage and 10 mg/kg/day with Trimetazidine administered intraperitoneally (i.p.) along with adrenaline for one week.

[2] = system: adrenaline-induced myocardial infarction (MI); experiment: Electrocardiogram and haemodynamic assessment in adrenaline-induced MI rats; assay type: in vivo; details: for ECG finding: MI rats, FIGS. 3A-3E; for COP (mean) / HR (mean) / RR (interval) / ST height / carotid flow mean: rats, adrenaline 2 mg/kg s.c. on 2 consecutive days, treatment for one week
Protocol: as §1, §2, §3, §4, §5, §6, §7

NHSF cell line = experiment: In vitro cytotoxicity and cell viability, optical microscope; assay type: cell-based
Protocol: On the NHSF cell line, the cytotoxic effect of ABA alone and collagen nanoparticles loaded with ABA was investigated with serial double-fold dilutions at an initial dose of 50 μMABA. ABA loaded with collagen nanoparticles was dissolved in ethanol, 0.0264 g/mL stock solutions, which were then serially diluted in a complete growth medium to make the different concentrations used in cytotoxicity assays. The cytotoxicity of each drug against the NHSF cell line was determined using an optical microscope. After a 24-hour incubation period at 37° C., exponentially developing cells were seeded in 96-well flat-bottomed microplates and subjected to drug doses for […].
After exposure of the NHSF cell line to each experimental drug, the reactions were allowed to proceed in an incubator (37° C./5% CO2/95% humidity) for 24 hours and 72 hours of time. Cell viability was recorded through an optical microscope, which is one of the methods generally used to detect cell proliferation or toxicity.
After 24 hours, cell growth rates in different types of ABA and “Marine Collagen Nanoparticles (MCNPs) with ABA were observed under an optical microscope. Cells were also cultured in media containing ethanol in an incubator (37° C./5% CO2/95% humidity) and then observed under an optical microscope.

[3] = Body and heart weight of experimental rats; assay type: in vivo; details: MI rats, treatment for one week
Protocol: as §1, §2, §3, §4, §5
Group 5 (MI+Collagen nanoparticle) group: rats were injected with adrenaline (2 mg/kg, s.c.) as a single dose for 2 consecutive days (24 h apart) to induce MI Collagen nanoparticle was administered along with adrenaline by oral gavage for one week at 1 mg/kg/day. […]

[4] = system: oxidative stress markers and antioxidant enzymes; experiment: Oxidative stress markers and antioxidant enzymes, cardiac contents, MI rats; assay type: in vivo; details: treatment for one week
Protocol: as §1, §2, §3, §4, §5, §6, §7
All treatment drugs improved the marker levels. NO level increased due to adrenaline administration because the role of NO in cardiovascular diseases is complex and controversial.

CC1=CC(=O)CC(C)(C)C1(O)/C=C/C(C)=C\C(=O)O (centres unmarked) [Extracted ABA, abscisic acid]
Cardiac enzyme levels [1]: decreased toward normal | ECG finding [2]: still showed pathological changes but with the ST segment nearer to the isoelectric line | elevation of COP ([2]; compared to the MI group): 73% | elevation of SV ([2]; compared to the MI group): 93% | elevation of carotid blood flow ([2]; compared to the MI group): 70% | COP (mean) [2]: 18.57 ± 1.0^b ml/min | HR (mean) [2]: 247.4 ± 9.69^cd b/min | RR (interval) [2]: 0.73 ± 0.03^b sec | ST height [2]: 42.98 ± 4.05^b mm | carotid flow mean [2]: 18.06 ± 1.15^b ml/min

CC1=CC(=O)CC(C)(C)[C@@]1(O)/C=C/C(C)=C\C(=O)O [Standard ABA, abscisic acid]
Cardiac enzyme levels [1]: decreased toward normal | ECG finding [2]: still showed pathological changes but with the ST segment nearer to the isoelectric line | elevation of COP ([2]; compared to the MI group): 63% | elevation of SV ([2]; compared to the MI group): 73% | elevation of carotid blood flow ([2]; compared to the MI group): 63% | COP (mean) [2]: 17.52 ± 0.1^b ml/min | HR (mean) [2]: 255.77 ± 1.23^c b/min | RR (interval) [2]: 0.7 ± 0.003^c sec | ST height [2]: 39.33 ± 2.15^b mm | carotid flow mean [2]: 17.4 ± 0.16^b ml/min

CC1=CC(=O)CC(C)(C)[C@@]1(O)/C=C/C(C)=C\C(=O)O [ABA, abscisic acid]
cell proliferation (NHSF cell line; HSFs culture, after 72 hours): marked increase of proliferation | cell morphology (NHSF cell line; NHSF cell line, after 24 hours): normal morphology of branch- and spindle-shapes

COc1ccc(CN2CCNCC2)c(OC)c1OC [Trimetazidine]
CK-MB ([1]; serum, treatment for one week): 1.13 ± 0.02^bc U/L | LDH ([1]; serum, treatment for one week): 246.67 ± 12.47^d U/L | Troponin ([1]; serum, treatment for one week): 1.34 ± 0.03^d ng/ml | Bwt ([3]; body weight): 188 ± 1.22^bcd | Hwt ([3]; heart weight): 1.39 ± 0.03^cd | ECG finding [2]: almost normal electrocardiogramith little to no elevation in the ST-segment | decrease in the ST segment elevation ([2]; compared to the MI group): ~46% | COP (mean) [2]: 23.9 ± 0.07^a ml/min | HR (mean) [2]: 254.17 ± 1.89^c b/min | RR (interval) [2]: 0.75 ± 0.02^a sec | ST height [2]: 27.55 ± 0.49^c mm | carotid flow mean [2]: 23.75 ± 0.05^a ml/min | Catalase ([4]; cardiac contents): 132.5 ± 36.08^ab U/g protein | GSH ([4]; cardiac contents): 19.59 ± 2.28ª μmol/g protein | MDA ([4]; cardiac contents): 4.4 ± 0.26^cde μmol/g protein | NO [4]: 52.22 ± 0^bc μM/g protein
